The values that follow come from paper PMC9619225, “Novel transketolase inhibitor oroxylin A suppresses the non‐oxidative pentose phosphate pathway and hepatocellular carcinoma tumour growth in mice and patient‐derived organoids” (Clinical and Translational Medicine, 2022).

Format in all cases: binding
The target of assay [1] is T1, p53 (Homo sapiens, UniProt P04637).
T1 construct: gene TP53
Nature of the assay: SPR.

For assay [2], the target named is T2, Transketolase (TKT) (Homo sapiens, UniProt P29401).
T2 sequence (P29401 1-623): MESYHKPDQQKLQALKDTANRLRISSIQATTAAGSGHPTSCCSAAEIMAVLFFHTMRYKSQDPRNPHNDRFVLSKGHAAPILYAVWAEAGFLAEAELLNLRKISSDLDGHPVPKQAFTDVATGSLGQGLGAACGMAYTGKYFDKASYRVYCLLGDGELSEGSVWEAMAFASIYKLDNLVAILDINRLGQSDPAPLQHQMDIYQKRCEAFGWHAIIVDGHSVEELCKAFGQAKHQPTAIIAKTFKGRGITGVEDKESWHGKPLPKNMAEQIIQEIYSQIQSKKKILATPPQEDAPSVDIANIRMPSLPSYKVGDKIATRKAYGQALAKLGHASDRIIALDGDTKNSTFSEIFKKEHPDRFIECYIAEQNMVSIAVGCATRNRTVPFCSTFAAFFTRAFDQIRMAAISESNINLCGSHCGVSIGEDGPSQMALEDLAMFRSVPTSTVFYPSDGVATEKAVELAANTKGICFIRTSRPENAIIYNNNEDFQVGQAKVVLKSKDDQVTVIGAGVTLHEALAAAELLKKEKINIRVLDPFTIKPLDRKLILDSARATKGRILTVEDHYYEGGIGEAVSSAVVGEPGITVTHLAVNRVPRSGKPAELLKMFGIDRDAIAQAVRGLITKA
Nature of the assay: SPR (Biacore, TKT immobilised on HisCap chip); supported by DARTS, CETSA, TKT-column displacement and enzyme inhibition ([…] at […]). Set-up: Purified human TKT protein. (In general: SPR reads the build-up and loss of mass on a sensor chip optically.)

Assay [3] deals with T2, Transketolase (TKT). Nature of the assay: competitive displacement chromatography on TKT protein column. Set-up: TKT protein immobilised on silica column.

T1 sequence (P04637 whole entry): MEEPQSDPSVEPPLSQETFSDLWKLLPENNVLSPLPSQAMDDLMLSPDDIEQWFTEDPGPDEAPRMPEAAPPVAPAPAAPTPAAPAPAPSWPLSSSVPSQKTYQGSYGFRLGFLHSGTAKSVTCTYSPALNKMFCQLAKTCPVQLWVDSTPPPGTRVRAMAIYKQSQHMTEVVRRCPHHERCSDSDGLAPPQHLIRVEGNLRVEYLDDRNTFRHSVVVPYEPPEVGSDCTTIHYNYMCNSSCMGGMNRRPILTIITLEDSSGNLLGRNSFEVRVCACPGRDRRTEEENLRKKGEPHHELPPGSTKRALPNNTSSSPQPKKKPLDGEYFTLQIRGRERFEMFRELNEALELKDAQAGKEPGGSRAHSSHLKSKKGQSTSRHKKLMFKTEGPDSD

A word on the Kd: it is the free concentration of one partner at which half of the binding sites on the other are occupied at equilibrium, for simple one-to-one binding. Turning to `COc1c(O)cc2oc(-c3ccccc3)cc(=O)c2c1O` [oroxylin A], the Kd in assay [1] was 70.7 µM; in assay [2] it was 11.9 ± 8.4 µM.

With `Cc1ncc(C[n+]2csc(CCO)c2C)c(O)n1` [oxythiamine], the “competitive displacement chromatography on TKT protein column” value in assay [3] is “retention time of oxythiamine was markedly decreased with the increased concentration of oroxylin A in mobile phase”.
